# Data as given in PubChem BioAssay AID1963860 (Molecular Pharmacology Branch, DTP, NCI, 2024).
# Calls of active or inactive are those of the source. The calls were made as follows: active = viability on the fitted dose curve at most 10% of control; inactive = the rest.
# Test system: CN0375-F725-PDC KRAS spheroid viability
# Test: Anticancer human tumor CN0375-F725-PDC patient-derived colon carcinoma cell line growth inhibition [KRAS2]
# Conditions: spheroids with HUVEC and MSC; for IC50: curve of first compound; for viability, T/C: stronger effect = lower value
# Method in brief: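 Combination screen of spheroid viability in tumor-cell co-cultures with endothelial (HUVEC) and mesenchymal stem cell stroma. Each agent was tested in half-log dilutions, topping at clinical Cmax or at 10 microM without a known Cmax.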
# [1] = second compound 0.1 µM, first compound 0.0316 µM
# [2] = second compound 0.1 µM, first compound 0.1 µM
# [3] = second compound 0.316 µM, first compound 0.0316 µM
# [4] = second compound 0.316 µM, first compound 0.1 µM
# [5] = second compound 1 µM, first compound 0.0316 µM
# [6] = second compound 1 µM, first compound 0.1 µM
# [7] = second compound 3.16 µM, first compound 0.0316 µM
# [8] = second compound 3.16 µM, first compound 0.1 µM
# [9] = second compound 10 µM, first compound 0.0316 µM
# [10] = second compound 10 µM, first compound 0.1 µM
# [11] = second compound 0.1 µM, first compound 0.316 µM
# [12] = second compound 0.1 µM, first compound 1 µM
# [13] = second compound 0.1 µM, first compound 3.16 µM
# [14] = second compound 0.1 µM, first compound 10 µM
# [15] = second compound 0.316 µM, first compound 0.316 µM
# [16] = second compound 0.316 µM, first compound 1 µM
# [17] = second compound 0.316 µM, first compound 3.16 µM
# [18] = second compound 0.316 µM, first compound 10 µM
# [19] = second compound 1 µM, first compound 0.316 µM
# [20] = second compound 1 µM, first compound 1 µM
# [21] = second compound 1 µM, first compound 3.16 µM
# [22] = second compound 1 µM, first compound 10 µM
# [23] = second compound 3.16 µM, first compound 0.316 µM
# [24] = second compound 3.16 µM, first compound 1 µM
# [25] = second compound 3.16 µM, first compound 3.16 µM
# [26] = second compound 3.16 µM, first compound 10 µM
# [27] = second compound 10 µM, first compound 0.316 µM
# [28] = second compound 10 µM, first compound 1 µM
# [29] = second compound 10 µM, first compound 3.16 µM
# [30] = second compound 10 µM, first compound 10 µM
# 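Also: spheroids exposed to agents for 7 days.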
compound,measurement,setting,value
CN(C)C/C=C/C(=O)Nc1cc2c(Nc3ccc(F)c(Cl)c3)ncnc2cc1O[C@H]1CCOC1 + CNCc1ccccc1-c1csc(C(C)Nc2nc(C)nc3cc(OC)c(OC)cc23)c1,IC50,second compound 0.1 µM,> 0.1 µM
same,IC50,second compound 0.316 µM,> 0.1 µM
same,IC50,second compound 1 µM,0.0773 µM
same,IC50,second compound 3.16 µM,0.0018 µM
same,IC50,second compound 10 µM,< 0.000316 µM
same,"viability, T/C","second compound 0.1 µM, first compound 0.000316 µM",97.1%
same,"viability, T/C","second compound 0.1 µM, first compound 0.001 µM",95.9%
same,"viability, T/C","second compound 0.1 µM, first compound 0.00316 µM",83.1%
same,"viability, T/C","second compound 0.1 µM, first compound 0.01 µM",86.4%
same,"viability, T/C",[1],78.4%
same,"viability, T/C",[2],74.2%
same,"viability, T/C","second compound 0.316 µM, first compound 0.000316 µM",94.8%
same,"viability, T/C","second compound 0.316 µM, first compound 0.001 µM",88.3%
same,"viability, T/C","second compound 0.316 µM, first compound 0.00316 µM",78.3%
same,"viability, T/C","second compound 0.316 µM, first compound 0.01 µM",74.6%
same,"viability, T/C",[3],76.1%
same,"viability, T/C",[4],70.5%
same,"viability, T/C","second compound 1 µM, first compound 0.000316 µM",76.3%
same,"viability, T/C","second compound 1 µM, first compound 0.001 µM",67.6%
same,"viability, T/C","second compound 1 µM, first compound 0.00316 µM",53.1%
same,"viability, T/C","second compound 1 µM, first compound 0.01 µM",54.8%
same,"viability, T/C",[5],60.4%
same,"viability, T/C",[6],43.6%
same,"viability, T/C","second compound 3.16 µM, first compound 0.000316 µM",99.2%
same,"viability, T/C","second compound 3.16 µM, first compound 0.001 µM",102%
same,"viability, T/C","second compound 3.16 µM, first compound 0.00316 µM",0.46%
same,"viability, T/C","second compound 3.16 µM, first compound 0.01 µM",0.32%
same,outcome,[7],active
same,"viability, T/C",[8],3.19%
same,"viability, T/C","second compound 10 µM, first compound 0.000316 µM",0.26%
same,"viability, T/C","second compound 10 µM, first compound 0.001 µM",0.23%
same,"viability, T/C","second compound 10 µM, first compound 0.00316 µM",0.35%
same,"viability, T/C","second compound 10 µM, first compound 0.01 µM",0.73%
same,"viability, T/C",[9],0.29%
same,"viability, T/C",[10],0.22%
COC(=O)c1ccc2c(C(=Nc3ccc(N(C)C(=O)CN4CCN(C)CC4)cc3)c3ccccc3)c(O)[nH]c2c1 + CNCc1ccccc1-c1csc(C(C)Nc2nc(C)nc3cc(OC)c(OC)cc23)c1,IC50,second compound 0.1 µM,3.22 µM
same,IC50,second compound 0.316 µM,1.57 µM
same,IC50,second compound 1 µM,3.84 µM
same,IC50,second compound 3.16 µM,< 0.0316 µM
same,IC50,second compound 10 µM,< 0.0316 µM
same,"viability, T/C",[1],95.2%
same,"viability, T/C",[2],95.4%
same,"viability, T/C",[11],86.6%
same,"viability, T/C",[12],83.5%
same,"viability, T/C",[13],50.3%
same,"viability, T/C",[14],0.35%
same,"viability, T/C",[3],94.7%
same,"viability, T/C",[4],88%
same,"viability, T/C",[15],84.3%
same,"viability, T/C",[16],73.1%
same,"viability, T/C",[17],14.9%
same,"viability, T/C",[18],0.2%
same,"viability, T/C",[5],84.7%
same,"viability, T/C",[6],87.9%
same,"viability, T/C",[19],77.3%
same,"viability, T/C",[20],68%
same,"viability, T/C",[21],65%
same,"viability, T/C",[22],0.24%
same,"viability, T/C",[7],1%
same,"viability, T/C",[8],0.73%
same,"viability, T/C",[23],0.68%
same,"viability, T/C",[24],1.02%
same,"viability, T/C",[25],0.63%
same,"viability, T/C",[26],0.32%
same,"viability, T/C",[9],0.63%
same,"viability, T/C",[10],0.51%
same,"viability, T/C",[27],0.5%
same,"viability, T/C",[28],0.37%
same,"viability, T/C",[29],0.61%
same,"viability, T/C",[30],0.3%
O=C(c1cc(Cc2n[nH]c(=O)c3ccccc23)ccc1F)N1CCN(C(=O)C2CC2)CC1 + CNCc1ccccc1-c1csc(C(C)Nc2nc(C)nc3cc(OC)c(OC)cc23)c1,IC50,second compound 0.1 µM,> 10 µM
same,IC50,second compound 0.316 µM,> 10 µM
same,IC50,second compound 1 µM,> 10 µM
same,IC50,second compound 3.16 µM,< 0.0316 µM
same,IC50,second compound 10 µM,< 0.0316 µM
same,"viability, T/C",[1],112%
same,"viability, T/C",[2],109%
same,"viability, T/C",[11],100%
same,"viability, T/C",[12],107%
same,"viability, T/C",[13],104%
same,"viability, T/C",[14],95.5%
same,"viability, T/C",[3],108%
same,"viability, T/C",[4],105%
same,"viability, T/C",[15],96.8%
same,"viability, T/C",[16],92.3%
same,"viability, T/C",[17],96.9%
same,"viability, T/C",[18],87.7%
same,"viability, T/C",[5],96.9%
same,"viability, T/C",[6],94.8%
same,"viability, T/C",[19],89.7%
same,"viability, T/C",[20],81%
same,"viability, T/C",[21],87.8%
same,"viability, T/C",[22],79.6%
same,"viability, T/C",[7],0.68%
same,"viability, T/C",[8],0.36%
same,"viability, T/C",[23],0.74%
same,"viability, T/C",[24],0.33%
same,"viability, T/C",[25],0.37%
same,"viability, T/C",[26],0.55%
same,"viability, T/C",[9],0.64%
same,"viability, T/C",[10],0.22%
same,"viability, T/C",[27],0.57%
same,"viability, T/C",[28],0.37%
same,"viability, T/C",[29],0.19%
same,"viability, T/C",[30],0.33%
